Assay results reported in patent US8716475B2, “2-aminopyrimidine modulators of the histamine H4 receptor” (Janssen Pharmaceutica NV, priority 2007, dated 2014).

Biological target: T1, human H4 receptor (Homo sapiens, UniProt Q9H3N8)
T1 construct: expressed in transfected cells
Test: Binding Assay on Recombinant Human Histamine H4 Receptor
Conditions: Table 1; [3H] histamine competition binding, membranes of SK-N-MC cells transfected with human H4 receptor; average of results
Method in brief: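 Radioligand binding used membranes from SK-N-MC cells stably or transiently expressing human H4, prepared in 50 mM Tris/5 mM EDTA. Nonspecific binding was defined with 100 μM histamine. Bound radioactivity was counted after filtration on PEI-treated GF/C filters, and ">" values are the highest concentration tested.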

Compound	Ki
4-(4-piperazin-1-yl)-5,6,7,8-tetrahydro-quinazolin-2-ylamine [Example 67]	17 nM
Cc1nc(N)nc(N2C[C@H]3CN(C)C[C@H]3C2)c1C [Example 30, 4,5-Dimethyl-6-(cis-5-methyl-hexahydro-pyrrolo[3,4-c]pyrrol-2-yl)-pyrimidin-2-ylamine]	530 nM
CCc1cc(N2CC[C@@H](N)C2)nc(N)n1 [Example 35, (R)-4-(3-Amino-pyrrolidin-1-yl)-6-ethyl-pyrimidin-2-ylamine]	21 nM
CC(C)c1cc(N2CC3CCCNC3C2)nc(N)n1 (stereo not drawn) [Example 19, 4-Isopropyl-6-(cis-octahydro-pyrrolo[3,4-b]pyridin-6-yl)-pyrimidin-2-ylamine]	8 nM
Cc1nc(N)nc(N2CC3CCCNC3C2)c1C (stereo not drawn) [Example 31, 4,5-Dimethyl-6-(cis-octahydro-pyrrolo[3,4-b]pyridin-6-yl)-pyrimidin-2-ylamine]	249 nM
CC(C)c1cc(N2CC[C@@H](N)C2)nc(N)n1 [Example 12, (R)-4-(3-Amino-pyrrolidin-1-yl)-6-isopropyl-pyrimidin-2-ylamine]	18 nM
CCc1cc(N2CC[C@@H](NC)C2)nc(N)n1 [Example 36, (R)-4-Ethyl-6-(3-methylamino-pyrrolidin-1-yl)-pyrimidin-2-ylamine]	21 nM
Nc1nc(C2CC2)cc(N2CC3CCCNC3C2)n1 (stereo not drawn) [Example 42, 4-Cyclopropyl-6-(cis-octahydro-pyrrolo[3,4-b]pyridin-6-yl)-pyrimidin-2-ylamine]	18 nM
CN1CCN(c2nc(N)nc3c2CCC3)CC1 [Example 74, 4-(4-Methyl-piperazin-1-yl)-6,7-dihydro-5H-cyclopentapyrimidin-2-ylamine]	76 nM
Cc1cc(N2CCNCC2)nc(N)n1 [Example 21, 4-Methyl-6-piperazin-1-yl-pyrimidin-2-ylamine]	29 nM
CN[C@@H]1CCN(c2cc(C)nc(N)n2)C1 [Example 23, (R)-4-Methyl-6-(3-methylamino-pyrrolidin-1-yl)-pyrimidin-2-ylamine]	77 nM
Cc1nc(N)nc(N2C[C@@H]3C[C@H]2CN3)c1C [Example 32, (S,S)-4-(2,5-Diaza-bicyclo[2.2.1]hept-2-yl)-5,6-dimethyl-pyrimidin-2-ylamine]	> 10000 nM

Same assay, conditions: Table 2, data marked with an asterisk (*): obtained by the cell harvester method; [3H] histamine competition binding, SK-N-MC membranes

Ki	Compound
517 nM	CCCCc1nc(N)nc(N(C)CCN)c1OC [Example 109, N^4-(2-Amino-ethyl)-6-butyl-5-methoxy-N^4-methyl-pyrimidine-2,4-diamine]
39 nM	CCCCc1nc(N)nc(N2CC[C@@H](NC)C2)c1OC [Example 106, (R)-4-Butyl-5-methoxy-6-(3-methylamino-pyrrolidin-1-yl)-pyrimidin-2-ylamine]
96 nM	CCCCc1nc(N)nc(N2CC[C@@H](N)C2)c1OC [Example 104, (R)-4-(3-Amino-pyrrolidin-1-yl)-6-butyl-5-methoxy-pyrimidin-2-ylamine]

Same assay, conditions: Table 2; [3H] histamine competition binding, membranes of SK-N-MC cells transfected with human H4 receptor; average of results

Ki	Compound
13 nM	Nc1nc(CCC(F)(F)F)cc(N2CC[C@@H](N)C2)n1 [Example 184, (R)-4-(3-Amino-pyrrolidin-1-yl)-6-(3,3,3-trifluoro-propyl)-pyrimidin-2-ylamine]
87 nM	Nc1nc(C2CCOCC2)cc(N2CC[C@@H](N)C2)n1 [Example 249, (R)-4-(3-Amino-pyrrolidin-1-yl)-6-(tetrahydro-pyran-4-yl)-pyrimidin-2-ylamine]
1 nM	CN[C@@H]1CCN(c2cc(CC(C)C)nc(N)n2)C1 [Example 148, (R)-4-Isobutyl-6-(3-methylamino-pyrrolidin-1-yl)-pyrimidin-2-ylamine]
23 nM	COCc1cc(N2CC[C@@H](N)C2)nc(N)n1 [Example 222, (R)-4-(3-Amino-pyrrolidin-1-yl)-6-methoxymethyl-pyrimidin-2-ylamine]
71 nM	CN[C@H]1CCN(c2nc(N)nc(C3CCCC3)c2OC)C1 [Example 114, (S)-4-Cyclopentyl-5-methoxy-6-(3-methylamino-pyrrolidin-1-yl)-pyrimidin-2-ylamine]
5 nM	Nc1nc(C2Cc3ccccc3C2)cc(N2CC[C@@H](N)C2)n1 [Example 162, (R)-4-(3-Amino-pyrrolidin-1-yl)-6-indan-2-yl-pyrimidin-2-ylamine]
46 nM	COc1c(C2CCCC2)nc(N)nc1N1CCCNCC1 [Example 112, 4-Cyclopentyl-6-[1,4]diazepan-1-yl-5-methoxy-pyrimidin-2-ylamine]
3 nM	CN[C@@H]1CCN(c2cc(C3CC3c3ccccc3)nc(N)n2)C1 (stereo in doubt) [Example 160, (R)-4-(3-Methylamino-pyrrolidin-1-yl)-6-(trans-2-phenyl-cyclopropyl)-pyrimidin-2-ylamine]
2 nM	Nc1nc(C2Cc3ccccc3C2)cc(N2CCNCC2)n1 [Example 165, 4-Indan-2-yl-6-piperazin-1-yl-pyrimidin-2-ylamine]
29 nM	CCOCc1cc(N2CCN(C)CC2)nc(N)n1 [Example 239, 4-Ethyoxymethyl-6-(4-methyl-piperazin-1-yl)-pyrimidin-2-ylamine]
42 nM	COCc1cc(N2CCCNCC2)nc(N)n1 [Example 117, 4-[1,4]-Diazepan-1-yl-6-methoxymethyl-pyrimidin-2-ylamine]
26 nM	COCc1cc(N2CCNCC2)nc(N)n1 [Example 224, 4-Methoxymethyl-6-piperazin-1-yl-pyrimidin-2-ylamine]
46 nM	CC(C)(C)c1cc(N2CC[C@H](N)C2)nc(N)n1 [Example 129, (S)-4-(3-Amino-pyrrolidin-1-yl)-6-tert-butyl-pyrimidin-2-ylamine]
12 nM	Nc1nc(Cc2ccc(Cl)cc2)cc(N2CCNCC2)n1 [Example 233, 4-(4-Chloro-benzyl)-6-piperazin-1-yl-pyrimidin-2-ylamine]
335 nM	NCCNc1cc(C2CCOCC2)nc(N)n1 [Example 176, N^4-(2-Amino-ethyl)-6-(tetrahydro-pyran-4-yl)-pyrimidine-2,4-diamine]

The remaining lines, values behind:

Compound	Ki
CCCCc1cc(N2CC3CCC(C2)N3)nc(N)n1 [Example 143, 4-Butyl-6-(3,8-diaza-bicyclo[3.2.1]oct-3-yl)-pyrimidin-2-ylamine]	13 nM
Cc1nc(N)nc(N2CCN(C)CC2)c1F [Example 199, 5-Fluoro-4-methyl-6-(4-methyl-piperazin-1-yl)-pyrimidin-2-ylamine]	69 nM
CC1(c2cc(N3C[C@H]4CNC[C@H]4C3)nc(N)n2)CCOCC1 [Example 170, 4-(cis-Hexahydro-pyrrolo[3,4-c]pyrrol-2-yl)-6-(4-methyl-tetrahydro-pyran-4-yl)-pyrimidin-2-ylamine]	5890 nM
Nc1nc(C2Cc3ccccc3C2)cc(N2C[C@H]3CNC[C@H]3C2)n1 [Example 173, 4-(cis-Hexahydro-pyrrolo[3,4-c]pyrrol-2-yl)-6-indan-2-yl-pyrimidin-2-ylamine]	2070 nM
CC(C)(C)c1cc(N2CC3CCC(C2)N3)nc(N)n1 [Example 134, 4-tert-Butyl-6-(3,8-diaza-bicyclo[3.2.1]oct-3-yl)-pyrimidin-2-ylamine]	130 nM
Nc1nc(C2CCCC2)cc(N2C[C@H]3CCCN[C@H]3C2)n1 [Example 81, (R,R)-4-Cyclopentyl-6-(octahydro-pyrrolo[3,4-b]pyridin-6-yl)-pyrimidin-2-ylamine]	2 nM
CN1C[C@@H]2CN(c3cc(C4CC4)nc(N)n3)C[C@@H]2C1 [Example 120, 4-Cyclopropyl-6-(cis-5-methyl-hexahydro-pyrrolo[3,4-c]pyrrol-2-yl)-pyrimidin-2-ylamine]	113 nM
